Data: US20130289520A1, “TARGETED AND LIGHT-ACTIVATED CYTOSOLIC DRUG DELIVERY” (CHILDREN'S HOSPITAL BOSTON, priority 2010, published 2013)

What was measured:
[1] = test system: LN-229 cells; assay: Light-induced cytosolic release of NP cargo after endocytosis; format: cell-based, human; details: co-incubated overnight with PEI-PEG coated NPs; green light
Method: Following overnight NP endocytosis, cells were exposed to green excitation light (520-550 nm, MWIG3/TRITC filter) for durations ranging from 3 s to 120 s. […] Confocal micrographs were analyzed using the software package Image-J. Average cell fluorescence was determined by manual contouring of cell borders. Data were then imported into Matlab (The Mathworks) for analysis and plotting purposes. The amount of dye released in the cell cytosol following light stimulation was taken as the difference in average cell fluorescence before and after light exposure.

[2] = test system: LN-229 cells; assay: Light-activated cytosolic delivery of co-endocytosed dextran, NeutrAvidin and QD; format: cell-based, human; details: for cytosolic delivery of co-endocytosed macromolecule or particle after light stimulation of NPs: LN-229 cells, overnight co-endocytosis with NPs, TRITC-filtered light 30 to 120 s
Method: We then determined whether the NPs could liberate co-endocytosed macromolecules and nanoparticles. […] In this experiment, one set of LN-229 cells was incubated with NPs loaded with a releasable cargo dye (Alexa 546), while a second set was incubated with NPs carrying a dye covalently bound to their matrix during synthesis (Alexa633; so it could not be released). The two cells populations were then plated together, and incubated in the presence of dextran-FITC. […] The lower release kinetics of dextran in the case of the covalently labeled Alexa633-NPs may be explained by a lower excitation efficiency of this fluorophore through the TRITC filter set used for exposure.
LN-229 cells were biotinylated at room temperature with NHS-PEO4-biotin in D-PBS (500 μM, Pierce) supplemented with 10 mM glucose for 30 min, washed ×5 in D-PBS, and trypsinized in 0.01% trypsin/EDTA. Cells were collected with DMEM-10% FBS, centrifuged for 5 min at 1,000 rpm, and resuspended in a 50 μg/mL solution of dye-loaded NP-streptavidin in D-PBS-glucose. After 30 min, the cells were washed twice in D-PBS, resuspended in DMEM-10% FBS, and plated on 12 mm glass coverslips at a density of ˜10^5 cells/cm^2. Dextran-FITC (3 kDa, Sigma), NeutrAvidin-FITC (Pierce), or QD525-streptavidin conjugates (Invitrogen) were added to the cells at respective concentrations of 1 mg/mL, 5 μg/mL, and 2 nM. Cells were placed in a 37° C. incubator overnight with 5% CO2 to allow for coverslip attachment and simultaneous endocytosis of the surface-bound NP-streptavidin conjugates, as well as dextran, NeutrAvidin, or QDs present in the culture medium. After overnight endocytosis, cells were washed twice in D-PBS, and transferred to a live-cell imaging chamber for light stimulation and observation in D-PBS supplemented with 10 mM glucose.
For experiments involving two types of NPs, the orange pseudo-colored NPs were the post-synthesis Alexa 546 loaded NPs used in all other experiments, while the red pseudo-colored NPs were covalently bound to Alexa 633 incorporated during synthesis of the NPs (1 μL of MPTMS and 20 μL of a 10 mM stock solution of Alexa 633-maleimide were incubated overnight at room temperature, and premixed with the silicate precursors before injection into the reaction mixture. Unreacted dye was removed during the surfactant extraction process). The “orange” nanoparticles can release part of their cargo, while the dye is irreversibly bound to the silica matrix for the “red” NPs. After trypsinization, the biotinylated LN-229 cells were incubated separately with each type of NP, and remixed at 1:1 before plating and overnight incubation with dextran-FITC.

Molecule | cytosolic release of co-endocytosed compound after light exposure [1] | cytosolic delivery of co-endocytosed macromolecule or particle after light stimulation of NPs [2] | time to maximum cell fluorescence ([2]; following the end of 120 s light exposure) [min] | cytosolic delivery of co-endocytosed macromolecule or particle after light stimulation of NPs ([2]; listed as QD525-streptavidin)
O=C(O)CN(CC(=O)O)Cc1cc2c(cc1O)Oc1cc(O)c(CN(CC(=O)O)CC(=O)O)cc1C21OC(=O)c2ccccc21 [calcein] | cytosolic release | – | – | –
NeutrAvidin: NeutrAvidin-FITC protein conjugate (Pierce) | – | could also be delivered to the cell cytosol | > 10 | –
dextran-FITC | – | successfully mediated cytosolic delivery | – | –
quantum-dot-streptavidin conjugates: QD525-streptavidin conjugates (Invitrogen) | – | remained clustered in the endo-lysosomal compartment | – | do not migrate into the cytosol
